Holding throughout (experiment): NCI anticancer screen, dose series, 48 h
In experiment [1] the test system is K-562 leukemia.
Experiment [2] relates to HS 578T breast.
The subject of experiment [3] is SF-268 CNS.
Experiment [4] relates to OVCAR-3 ovarian.
The test system of experiment [5] is NCI-H23 lung.
Experiment [6] relates to HT29 colon.
The test system of experiment [7] is OVCAR-8 ovarian.
The subject of experiment [8] is UACC-62 melanoma.
Experiment [9] has as its system NCI-H522 lung.
Experiment [10] relates to UACC-257 melanoma.

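Grown in 96-well plates, cells were treated for 48 hours with each compound at five concentrations. Insufficient inhibition: endpoint recorded as highest concentration tested. Definition used: TGI = concentration required for complete inhibition of growth.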

On to `COc1ccc2[nH]c3c(C)c4ccnc(NCCCN(C)CCCNc5ccc6ncn7c8ccccc8c(=O)c5c67)c4c(C)c3c2c1`, for which the TGI in experiment [1] came out at 4.25 µM; in experiment [2], 25 µM; in [3], 17.3 µM; in experiment [4] it was 6.56 µM; in experiment [5] it was 1.94 µM; in experiment [6], 1.03 µM. Besides, the TGI is 7.16 µM in experiment [7], 9.18 µM in experiment [8], 1.24 µM in experiment [9] and 2.9 µM in experiment [10].

Take `O=c1[nH]c(=O)n(C2OC(CO)C(O)C2O)cc1Oc1ccccc1` (stereo not given): the TGI in experiment [1], in experiment [2], in [3], in [4], in experiment [5] and in experiment [6] was over 100 µM each time. Also, the TGI in experiment [7], in [8], in experiment [9] and in experiment [10] was over 100 µM in each case.

With `COc1cccc(N(CN2C(=O)CCC2C(=O)O)C(C)=O)c1` (stereo not given), the TGI in experiment [1], in [2], in experiment [3], in [4], in [5] and in [6] was over 100 µM in each case. Further, the TGI in [7], in [8], in experiment [9] and in experiment [10] was over 100 µM in each case.

As to `COC1OC(COC(=O)c2cc(O)c(O)c(O)c2)C(OC(=O)c2cc(O)c(O)c(O)c2)C(OC(=O)c2cc(O)c(O)c(O)c2)C1OC(=O)c1cc(O)c(O)c(O)c1` (stereo not given), the TGI in experiment [1] was 49.7 µM; in experiment [2], over 100 µM; in experiment [3], over 100 µM; in [4] it was 77.7 µM; in experiment [5] it was over 100 µM; in experiment [6], over 100 µM. Besides, the TGI in experiment [7] is over 100 µM; in experiment [8], over 100 µM; in experiment [9], 50.4 µM; in experiment [10], over 100 µM.

With `C[C@@H](NC(=O)c1ccc(CNC(=O)/C=C/c2cccc(Oc3ccccc3)c2)cc1)c1ccccc1`, the TGI in [1] was over 100 µM; in experiment [2], 33.4 µM; in [3], 78 µM; in [4], over 100 µM; in experiment [5], over 100 µM; in experiment [6] it was over 100 µM. Besides, the TGI in experiment [7], in [8], in experiment [9] and in [10] was over 100 µM throughout.

Turning to `O=C1C=CC(=O)c2c1ccc1c3ccccc3n(Cc3cccc([N+](=O)[O-])c3)c21`, the TGI was over 59.9 µM in experiment [1]; over 100 µM in [2]; over 100 µM in experiment [3]; 34.6 µM in experiment [4]; 50.4 µM in experiment [5]; over 73.1 µM in experiment [6]. Also, the TGI was over 100 µM in experiment [7], over 78.6 µM in experiment [8], 37.2 µM in experiment [9] and 60.1 µM in experiment [10].

For `C=C(CN1CC2C[C@](C(=O)OC)(c3cc4ccccc4[nH]3)C1C(OC)C2OC)S(=O)(=O)c1ccccc1` (stereo not given in full), the TGI in [1] came out at 10.6 µM; in experiment [2] it was 10.9 µM; in experiment [3] it was 15.8 µM; in experiment [4], 10.2 µM; in [5] it was 9.31 µM; in experiment [6], 9.44 µM. In addition, the TGI in experiment [7] turned out to be 12.6 µM; in experiment [8] it was 14.8 µM; in experiment [9] it was 3.79 µM; in experiment [10] it was 8.5 µM.

`CC(C)Cc1cc2c(cc1O)CCC1C2CC[C@@]2(C)C1CC[C@@H]2O` (stereo not given in full): the TGI in experiment [1] was determined as 19.6 µM; in [2], 23.7 µM; in experiment [3] it was 39.4 µM; in experiment [4], 16.6 µM; in [5] it was 26.4 µM; in experiment [6], 21.6 µM. Also, the TGI in experiment [7] was 22.3 µM; in experiment [8], 21.2 µM; in experiment [9] it was 26 µM; in experiment [10] it was 35.1 µM.

As for `CCOC(=O)C(C(=S)SC)c1nn2c(=O)cc(C)nc2s1` (stereo not given), the TGI in [1] stood at 34.9 µM; in experiment [2], 44.9 µM; in [3] it was 34 µM; in experiment [4], 34.8 µM; in experiment [5], 39 µM; in [6], 36.9 µM. Besides, the TGI came out at 35.5 µM in experiment [7], 47.6 µM in [8], 42.5 µM in [9] and 44.2 µM in [10].

Regarding `O=C(CNC(c1ccccc1)(c1ccccc1)c1ccccc1)NC1CCCCC1NC(=O)CNC(c1ccccc1)(c1ccccc1)c1ccccc1` (stereo not given), the TGI in experiment [1], in experiment [2], in experiment [3], in experiment [4], in [5] and in experiment [6] was over 100 µM throughout. The TGI in experiment [7], in experiment [8], in experiment [9] and in [10] was over 100 µM each time.

In the case of `CCN(CC)Cc1c(/C=C\c2cc(OC)c(OC)c(OC)c2)ccc(OC)c1O`, the TGI was over 100 µM in experiment [1]; 6.22 µM in experiment [2]; 52.2 µM in experiment [3]; 6.49 µM in experiment [4]; 14.3 µM in experiment [5]; 9.48 µM in experiment [6]. In addition, the TGI in [7] is 63.2 µM; in [8], 27.7 µM; in [9], 6.22 µM; in experiment [10] it was over 100 µM.

For the origin of these results see PubChem BioAssay (NCI).
